Entries after “also recorded” stand apart in the source; their conditions may differ.
These compounds were tested on PDE IV (assay: Cell-based PDE assay in ACTOne-IRES-A2b#2 cell line with ACTOne Membrane Potential dye, no external cAMP stimulation). Conditions: ACTOne-IRES-A2b#2 cell line (HEK293-CNG overexpressing human adenosine A2b receptor); readings before and 30 minutes after compound addition.
Method: Before the assay, all cells are harvested when they reach 80-90% confluence or less, and they should not be overgrown. Culture medium of the transfected cells was removed and replaced with a volume of Dulbecco's Phosphate Buffers Saline without calcium and magnesium (DPBS) to adequately cover and wash the cells. The DPBS was removed and a sufficient volume of 1× trypsin-EDTA was added to just cover the cells (i.e. 1 ml for a 10 cm dish, 2 ml for a T75 flask, and 5 ml for a T150 flask). The plate was agitated to make sure the cells were equally covered with the solution. The cells were trypsinized at room temperature for about 5 min. After 5 min, the cells were examined to ensure that they were detached from the dish or flask. Gentle tapping of the dish/flask may aid in the process. Sufficient serum-containing medium were added to an appropriate volume and the medium was pipetted up and down through a serological pipette for 4 times to obtain a single cell suspension. A portion of the cells were counted with a hemocytometer. Cells are diluted in their appropriate medium at 7×10^5 cells/ml. 100 μl/well of cell suspension is added to 96-well plates or 20 μl/well is added to 384-well plates 16-24 hours before use. For cells with HEK293 background, poly-D-lysine-coated plates are recommended. Optimal assay conditions using standard fluorescence plate readers require a confluent monolayer of cells prior to the assay. The number of cells used per well will depend upon a number of conditions including the cell line and the instrument being used to make the reading. Cell plates are removed from the incubator after overnight incubation and examined under microscope. A confluent lawn of consistently spread cells is observed. An equal volume of IX Membrane Potential Dye Solution (BD Biosciences, Rockville, Md.) is then added to each well (e.g. 100 μl to 100 μl culture medium/well for 96-well plates, or 20 μl to 20 μl culture medium/well for 384-well plates). […] The cell plates are further incubated for 2 hrs at room temperature in the dark. Membrane potential assays are performed as described in the manual for ACTOne Membrane Potential Dye Kit (BD Biosciences, Rockville, Md.). Test compounds can be added on-line (some fluorescence plate readers also have fluid addition module, and therefore compound addition and fluorescence intensity reading can happen simultaneously. i.e. FLIPR and FlexStation) or off-line (other liquid handling equipments are used for compound addition). Test compounds in 1×DPBS was added to the cell plates at 50 μl/well for 96-well plates (250 μl total well volume after addition) or 10 μl/well for 384-well plates (50 μl total well volume after addition). Cell plates are loaded into a FLIPR, FLEXstation, or other fluorescence microplate reader to read fluorescence intensity before and after compound addition. The settings on FLIPR are described in the manuals from the manufacturer. For FLEXstation and other fluorescence microplate readers, wavelengths close to the maxima of absorption and emission of the dye are used: for example, 530 nm excitation, 550 auto cut-off, and 565 nm emission. […] Fluorescence intensity counts obtained before and 30 minutes after compound addition were used for data analysis. […] It has been reported that PDE4 is a dominant isozyme in HEK293 cells. In order to analyze the specificity of the PDE assay, different PDE inhibitors (Ro20-1724, Rolipram, Etazolate (PDE IV inhibitors); 8-methoxymethyl-3-isobuty-1-m (PDE I inhibitor); Zaprinast (cGMP specific PDE inhibitor); Quazinon (PDE III inhibitor); IBMX (pan PDE inhibitor)) were purchased from Sigma. They were diluted at different concentrations in 1×DPBS and the assays were performed the same as above using the ACTOne-IRES-A2b#2 cell line. Briefly, the cells were plated on 384-well PDL coated plate. The density of the cells was 14,000 cells per well. The cells were allowed to attach and grow overnight. […]

Row | Structure (SMILES) | detection of PDE inhibitor activity (dose response, fluorescence intensity)
1 | CC(C)Cn1c(=O)n(C)c(=O)c2[nH]cnc21 [IBMX, 3-Isobutyl-1-methylxanthine] | can not be detected; also recorded: negative signals
2 | CCCOc1ccccc1-c1nc2nn[nH]c2c(=O)[nH]1 [Zaprinast] | negative signals
3 | CCCCOc1cc(CC2CNC(=O)N2)ccc1OC (stereo not shown) [Ro20-1724] | detected
4 | C[C@@H]1C(=O)NC2=Nc3cccc(Cl)c3CN21 [Quazinon] | negative signals
5 | COCc1nc2c([nH]1)c(=O)n(C)c(=O)n2CC(C)C [8-methoxymethyl-3-isobuty-1-m, 8-Methoxymethyl-3-isobutyl-1-methylxanthine] | negative signals
6 | CCOC(=O)c1cnc2c(cnn2CC)c1NN=C(C)C.Cl [Etazolate, 1-ethyl-4-[(1-methylethylidene)hydrazino]1H-pyrazol-o[3,4-b]pyridine-5-carboxylic acid ethyl ester hydrochloride] | detected
7 | COc1ccc(C2CNC(=O)C2)cc1OC1CCCC1 (stereo not shown) [Rolipram, 4-[3-(cyclopentyloxy)-4-methoxyphenyl]-2-pyrrolidinone] | detected

Source: patent publication US20070224645A1, “Novel cell-based phosphodiesterase assays” (priority 2006, published 2007)
